Reference: PubChem BioAssay AID1259371 (The Scripps Research Institute Molecular Screening Center, 2018)
The source made the active and inactive calls. How the calls were made is not given here.

Target: Microphthalmia-associated transcription factor (Homo sapiens) (UniProt O75030)
Experiment: MITF inhibitors, potency by titration, dose response, biochemical, AlphaScreen, human (AID 1259371)
Settings: AlphaScreen biochemical MITF assay, signal inhibition

Microphthalmia-associated transcription factor (Homo sapiens), sequence (O75030 whole entry, looked up): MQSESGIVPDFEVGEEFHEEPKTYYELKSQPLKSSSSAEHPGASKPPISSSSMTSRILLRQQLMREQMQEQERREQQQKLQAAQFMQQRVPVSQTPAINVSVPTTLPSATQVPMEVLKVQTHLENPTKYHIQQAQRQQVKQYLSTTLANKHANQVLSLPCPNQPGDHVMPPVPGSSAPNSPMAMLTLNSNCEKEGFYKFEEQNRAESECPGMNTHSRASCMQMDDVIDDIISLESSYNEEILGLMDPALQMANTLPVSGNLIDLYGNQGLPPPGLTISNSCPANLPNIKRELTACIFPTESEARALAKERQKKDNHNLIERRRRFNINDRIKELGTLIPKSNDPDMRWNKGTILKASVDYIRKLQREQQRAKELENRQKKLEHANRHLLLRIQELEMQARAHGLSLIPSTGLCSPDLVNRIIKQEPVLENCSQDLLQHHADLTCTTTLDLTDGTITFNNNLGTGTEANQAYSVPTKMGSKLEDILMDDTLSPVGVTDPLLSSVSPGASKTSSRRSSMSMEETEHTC

SMILES: CC(C)(C)c1ccc(OCCn2cncn2)c(Cl)c1
- IC50: > 6480 nM (inactive)

SMILES: CN1CCN(CCNC(=O)c2cccc(CN(C(=O)c3nc4ccc(-c5cn[nH]c5)cc4s3)C3CC3)c2)CC1
- IC50: 645 nM

SMILES: COc1cc2cc3c(N)c(C(=O)Nc4sc(C)c(C)c4C#N)sc3nc2cc1OC
- IC50: 409 nM

SMILES: O=C(NCCO)c1cccc(-c2cccs2)c1
- IC50: inactive

SMILES: O=C(Nc1ccc(C(=O)Nc2ccc(C(=O)Nc3ccc(S(=O)(=O)O)c4cc(S(=O)(=O)O)cc(S(=O)(=O)O)c34)cc2)cc1)Nc1ccc(C(=O)Nc2ccc(C(=O)Nc3ccc(S(=O)(=O)O)c4cc(S(=O)(=O)O)cc(S(=O)(=O)O)c34)cc2)cc1
- IC50: 986 nM

SMILES: O=C(O)c1cc2ncc(-c3n[nH]c(-c4cnc5cc(C(=O)O)nn5c4)c3[N+](=O)[O-])cn2n1
- IC50: 641 nM

SMILES: O=C(/C=C/c1ccco1)NC(=S)NNC(=O)c1ccccc1O
- IC50: > 2160 nM (inactive)

SMILES: CCC(C)C(=O)NCc1nnc2n1CCN(C/C=C/c1ccco1)CC2 (stereo not given)
- IC50: 570 nM

SMILES: NC(=O)CSc1ccc(C(N)=O)cc1[N+](=O)[O-]
- IC50: inactive

SMILES: O=C(NCCc1ccc(O)cc1)c1cccc(-c2cccs2)c1
- IC50: > 6260 nM (inactive)

SMILES: Cc1cc(/C=C2/C=CC(=O)O2)oc1C
- IC50: 651 nM

SMILES: Clc1ccc(CN2CCN(Cc3c[nH]c4ccccc34)CC2)cc1
- IC50: inactive

SMILES: O=C1N[C@@H](CC2CCCCC2)C(=O)N2CCN(C(=O)NCc3ccccc3)C[C@H]12
- IC50: > 2160 nM (inactive)

SMILES: CCOC(=O)c1cc(N2C(=O)C3C4C=CC(C4)C3C2=O)ccc1Cl (stereo not given)
- IC50: inactive

SMILES: Cc1cccc(N2CCN(C(=O)/C=C\C(=O)O)CC2)c1C
- IC50: inactive

SMILES: O=C1N[C@@H](Cc2ccc(O)cc2)C(=O)N2CCN(C(=O)NC3CCCCC3)C[C@H]12
- IC50: > 2160 nM (inactive)

SMILES: N#CC1=c2/c(=C/c3ccco3)c(N)c(C#N)n2C(=O)C(c2ccco2)S1 (stereo not given)
- IC50: 28.1 nM

SMILES: CN(C)/C=C/C=C/C(=O)C1CCC/C(=C\C=C\N(C)C)C1=O (stereo not given)
- IC50: 85 nM

SMILES: O=C(OC1CCCC1=O)c1ccc(S(=O)(=O)N2CCCCC2)cc1 (stereo not given)
- IC50: inactive

SMILES: CC[C@H](C)[C@@H]1NC(=O)[C@H]2CN(C(=O)NC3CCCCC3)CCN2C1=O
- IC50: > 2160 nM (inactive)

SMILES: O=C(NCCN1CCOCC1)c1cccc(CN(C(=O)c2nc3ccc(-c4cn[nH]c4)cc3s2)C2CC2)c1
- IC50: inactive

SMILES: CCCCn1c(=O)[nH]c(=O)c2c1nc(-c1ccc([N+](=O)[O-])o1)n2C
- IC50: 66.6 nM

SMILES: CN1C(=O)[C@H]2CN(C(=O)NC3CCCCC3)CCN2C(=O)[C@@H]1Cc1ccccc1
- IC50: inactive

SMILES: CC[C@H](C)[C@@H]1NC(=O)[C@H]2CN(C(=O)Nc3cccc(F)c3)CCN2C1=O
- IC50: inactive

SMILES: CCN(CC)C(=S)NC(=O)/C=C/c1ccco1
- IC50: 89.4 nM

SMILES: COC(=O)C1=C(C(=O)OC)C2c3ccccc3C=CN2C(C(=O)OC)=C1C(=O)OC (stereo not given)
- IC50: > 4070 nM (inactive)

SMILES: O=C1Nc2ccc(S(=O)(=O)NCc3ccccc3)cc2C1=O
- IC50: inactive

SMILES: O=C(COc1ccccc1C(=O)OC1CCCC1=O)Nc1cccc(C(F)(F)F)c1 (stereo not given)
- IC50: inactive

SMILES: O=C1NC(=O)/C(=C\c2ccc(O)cc2O)S1
- IC50: inactive

SMILES: N[C@@H](C(=O)N[C@@H]1C(=O)N2C(C(=O)O)=C(CSC3CNNN3)CS[C@H]12)c1ccc(O)cc1 (stereo not given in full) (tested in a mixture with another compound)
- IC50: 324 nM

SMILES: O=C(NCC(c1cccs1)S(=O)(=O)c1ccc(Cl)cc1)c1ccco1 (stereo not given)
- IC50: inactive

SMILES: Cc1nc(C)n(-c2ccc(Nc3cc(-n4cc(N(c5cccnc5)c5cccnc5)cn4)ccn3)cc2)n1
- IC50: 864 nM

SMILES: CCC[C@@H]1NC(=O)[C@H]2CN(C(=O)NCc3ccccc3)CCN2C1=O
- IC50: 826 nM

SMILES: CC(C)NC(=O)/C(C#N)=C/c1ccc(-c2ccc([N+](=O)[O-])cc2Br)o1
- IC50: 314 nM

SMILES: Cc1ccc(COc2ccc(/C=N/N=C3\NC(=O)C(CC(=O)O)S3)cc2)cc1 (stereo not given)
- IC50: inactive

SMILES: O=C(O)COc1ccc(-n2cccc2)cc1
- IC50: 324 nM

SMILES: Cc1ccc(S(=O)(=O)C(CNC(=O)c2ccco2)c2cccs2)cc1 (stereo not given)
- IC50: inactive

SMILES: COc1ccc2c(c1)C1NC(=S)N(c3cccc(C)c3)C(C)(O2)C1C(=O)Nc1ccc(C)cc1C (stereo not given)
- IC50: > 5710 nM (inactive)

SMILES: O=C(NCc1ccccc1)N1CCN2C(=O)[C@@H]3CCCN3C(=O)[C@H]2C1
- IC50: inactive

SMILES: Cc1cccc(OCC(=O)N2CCN(Cc3cccc(Br)c3)CC2)c1
- IC50: > 6480 nM (inactive)

SMILES: O=Cc1cccn1-c1ccc(C(=O)O)cc1
- IC50: inactive

SMILES: Cc1ccc(N[C@@H]2OC[C@@H](O)C(O)C2O)cc1N[C@@H]1OC[C@@H](O)C(O)C1O (stereo not given in full)
- IC50: inactive

SMILES: CC(=O)NCC(c1cccs1)S(=O)(=O)c1ccc(C)cc1 (stereo not given)
- IC50: inactive

SMILES: O=C(c1ccncc1)N1C2C=CC(C2)C1(C(F)(F)F)C(F)(F)F (stereo not given)
- IC50: inactive

SMILES: N#C/C(=C\c1nn(-c2ccccc2)c(N)c1C#N)c1ccco1
- IC50: 386 nM

SMILES: CC(Oc1ccc2c(C(F)(F)F)cc(=O)oc2c1)C(=O)NN (stereo not given)
- IC50: inactive

SMILES: O=C1O[C@H](C(O)CO)C(O)=C1O (stereo not given in full)
- IC50: inactive

SMILES: CC(C)N(C)CCOC(=O)/C=C/c1ccco1
- IC50: inactive

SMILES: CC1=C(C#N)C(c2cc3c(cc2[N+](=O)[O-])OCO3)C2=C(CCCC2=O)N1 (stereo not given)
- IC50: inactive

SMILES: O=C(/C=C/c1ccco1)NC(=S)Nc1cc(C(=O)O)ccc1Cl
- IC50: 146 nM

SMILES: Cc1ccc(-c2nnc3s/c(=C\c4ccco4)c(=O)n23)cc1
- IC50: inactive

SMILES: c1ccc(-c2ccc(OCCCCn3cncn3)cc2)cc1
- IC50: inactive

SMILES: COc1cc(N2CCOCC2)ccc1Nc1cc(Nc2ccccc2-n2cccn2)c(C(F)(F)F)cn1
- IC50: inactive

SMILES: Cc1ccc(O)c(NC(=S)NC(=O)/C=C/c2ccco2)c1
- IC50: > 6480 nM (inactive)

SMILES: Cc1cccc(NC(=O)c2ccc(NS(=O)(=O)c3ccc4[nH]cc(C(=O)O)c(=O)c4c3)cc2)c1
- IC50: > 1580 nM (inactive)

SMILES: Cc1ccc(/C(C#N)=C\c2ccco2)cc1
- IC50: inactive

SMILES: CCOC(=O)N1CCN(C(=S)Nc2ccc(OCC)cc2)CC1
- IC50: inactive

SMILES: O=C(O)/C=C/c1ccc([N+](=O)[O-])o1
- IC50: inactive

SMILES: CN(C)CCn1nnnc1SCC1=C(C(=O)O)N2C(=O)[C@@H](NC(=O)Cc3csc(N)n3)[C@H]2SC1
- IC50: 215 nM

SMILES: CCN(CCN(C)C)Cc1ccc(F)cc1
- IC50: > 6480 nM (inactive)

SMILES: Cc1ccc(C(=O)N/C(=C/c2ccc([N+](=O)[O-])o2)C(=O)O)cc1
- IC50: inactive

SMILES: CCCOc1ccc(N)cc1N
- IC50: inactive

SMILES: CCOC(=O)C1C2NC(=S)N(c3ccccc3)C1(C)Oc1cc(OC)ccc12 (stereo not given)
- IC50: > 6400 nM (inactive)

SMILES: O=C1N[C@H](Cc2ccccc2)C(=O)N2CCN(C(=O)NCc3ccccc3)C[C@H]12
- IC50: inactive

SMILES: COc1ccc2c(c1)CC(C(=O)Nc1ccc(-c3cn[nH]c3)cc1OCC(N)=O)CO2 (stereo not given)
- IC50: inactive

SMILES: CN(CCOC(=O)/C=C/c1ccco1)Cc1ccccc1
- IC50: 48.3 nM

SMILES: CC(=C/C(=O)O)/C=C/c1ccoc1
- IC50: 159 nM

SMILES: O=C(c1ccc([N+](=O)[O-])cc1)N1CCN(Cc2cccc3ccccc23)CC1
- IC50: > 5480 nM (inactive)

SMILES: O=C(/C=C/c1ccco1)NCCCCCCNC(=O)/C=C/c1ccco1
- IC50: inactive

SMILES: O=P(O)(O)C(Sc1ccc(Cl)cc1)P(=O)(O)O
- IC50: 62.6 nM

SMILES: COc1ccc(C[C@@H]2NC(=O)[C@H]3CN(C(=O)NC4CCCCC4)CCN3C2=O)cc1
- IC50: inactive

SMILES: C=C1c2cccc(O)c2C(O)=C2C(=O)[C@]3(O)C(O)=C(C(N)=O)C(=O)[C@@H](N(C)C)[C@@H]3[C@@H](O)[C@H]12
- IC50: 39.9 nM

SMILES: O=C(NCCO)c1ccc2nc(-c3ccco3)c(-c3ccco3)nc2c1
- IC50: 396 nM

SMILES: O=C(O)c1cc(N/N=C/c2ccc(N3CCOCC3)s2)ccc1Cl
- IC50: 116 nM

SMILES: O=C(O)c1cccc(-n2cccc2/C=C2/NC(=O)N(c3ccc(Cl)cc3)C2=O)c1
- IC50: 42.2 nM

SMILES: CN(C)C1C(=O)C(C(N)=O)=C(O)C2(O)C(=O)C3=C(O)c4c(O)cccc4C(C)(O)C3CC12 (stereo not given)
- IC50: > 6480 nM (inactive)

SMILES: Cc1cc(O)c2c(c1)Cc1cccc(O)c1C2=O
- IC50: 474 nM

SMILES: NC(=O)COC(=O)/C=C/c1ccc(I)o1
- IC50: inactive

SMILES: Cn1c(SCc2cc(=O)n3c(n2)sc2ccccc23)nnc1C(F)(F)F
- IC50: inactive

SMILES: O=C(COC(=O)c1cc(-c2ccco2)nc2ccccc12)NC1CC1
- IC50: inactive

SMILES: C/C(=N\Nc1ccc(S(=O)(=O)O)cc1)c1cccc(Br)c1
- IC50: inactive

SMILES: CN=C1SC(CC(=O)Nc2cccc(C(=O)O)c2)C(=O)N1C (stereo not given)
- IC50: inactive

SMILES: COC(=O)CN(CCN(CC(=O)O)CC(=O)OC)CC(=O)O
- IC50: inactive

SMILES: O=C1N[C@@H](COCc2ccccc2)C(=O)N2CCN(C(=O)NC3CCCCC3)C[C@H]12
- IC50: inactive

SMILES: Nc1cc2c(S(=O)(=O)O)cc(S(=O)(=O)O)cc2cc1S(=O)(=O)O
- IC50: > 6480 nM (inactive)

SMILES: CCOC(=O)C1C2NC(=S)N(c3ccc(C)cc3)C1(C)Oc1c(OCC)cccc12 (stereo not given)
- IC50: > 4890 nM (inactive)

SMILES: O=C(Nc1ccc(Oc2ccccc2)cc1)c1ccnc(-c2cccs2)c1
- IC50: > 6710 nM (inactive)

SMILES: O=C1OC(c2cccc([N+](=O)[O-])c2)=N/C1=C\c1ccc(OCc2ccccc2)cc1
- IC50: > 4620 nM (inactive)

SMILES: O=C(O)c1ccc(CNC(=O)c2cocc2C(=O)O)o1
- IC50: > 7320 nM (inactive)

SMILES: CCc1ccc(CN2CCN(Cc3cc(OC)c(O)c(OC)c3)CC2)cc1
- IC50: > 5790 nM (inactive)

SMILES: COc1ccc(OC)c(NC(=O)c2cc3ccc(O)cc3oc2=Nc2ccc(C(=O)O)cc2)c1
- IC50: 981 nM

SMILES: NC1(C(Cl)(Cl)Cl)Oc2ccccc2O1
- IC50: 232 nM

SMILES: COc1ccc(/C=C2\N=C(c3ccc4c(c3)OCO4)OC2=O)cc1Cl
- IC50: 757 nM

SMILES: O=C1N[C@@H](Cc2ccccc2)C(=O)N2CCN(C(=O)NC3CCCCC3)C[C@H]12
- IC50: inactive

SMILES: CC(C)[C@@H]1NC(=O)[C@H]2CN(C(=O)NCc3ccccc3)CCN2C1=O
- IC50: 819 nM

SMILES: Cc1cc(NC(=O)C2CCN(C(=O)c3ccc(-n4cccc4)cc3)CC2)no1
- IC50: inactive

SMILES: COc1ccc(CC2NCCc3cc(OC)c(OC)cc32)cc1OC (stereo not given)
- IC50: 40 nM

SMILES: O=c1cc(/C=C/c2ccc(O)cc2)nc2nn[nH]n12
- IC50: inactive

SMILES: O=C(O)c1ccc(O)c(C=Nc2ccc(N=Cc3cc(C(=O)O)ccc3O)cc2)c1
- IC50: inactive

SMILES: O=C(/C=C/c1ccco1)NC(=S)Nc1ccc(Cl)c(C(=O)O)c1
- IC50: 527 nM
